{
  "source": "patent US8802433B2",
  "about": "“Macrophage phagocytosis-activating composition and/or composition promoting cytokine production in macrophages” (Aureo Co., Ltd., priority 2009, dated 2014)",
  "key": {"[1]": {"tested_on": "THP-1 cells differentiated into macrophage-like cells", "assay": "Cytokine gene expression in macrophage-like cells (RT-PCR, agarose gel electrophoresis)", "type": "cell-based, human", "conditions": "7 hours, compared to group a (control)", "experimental": "Regarding TNF-α, IL-6, IL-12B, and IL-18, cytokines released when macrophage-like cells underwent activity induction, how much mRNA for these substances expressed in the macrophage-like cells to which the Aureobasidium culture fluid, Compound 1, or the Aureobasidium culture fluid plus Compound 1 was added was measured by RT-PCR according to an ordinary method. Specifically, first, the THP-1 cells differentiated into macrophage-like cells by the method of Test Example 1 were washed twice with PBS to remove undifferentiated THP-1 cells, and then divided into 9 groups, group a, group b, group c, group d, group e, group f, group g, group h, and group i. Subsequently, the Aureobasidium culture fluid and/or Compound 1 was added to each group so as to have the final concentrations as follows, and the mixture was incubated for 7 hours. Next, each group was washed with PBS, thereafter, 1 mL of Trizol (Invitrogen) was added to each, and the mixture was well suspended and left at room temperature for 5 minutes. […] After left at room temperature for 2 minutes, the mixture was centrifuged at 12000×g at 4° C. for 10 minutes. After centrifugation, 400 μL of the upper layer was collected and transferred to a new Eppendorf tube for 1.5 mL, and 500 μL of 2-propanol (Wako) was added and stirred, and then left at room temperature for 5 minutes. […] Thereafter, the mixture was centrifuged at 12000×g at 4° C. for 10 minutes. After centrifugation, the upper layer was discarded, 75% ethanol was added to the precipitate, and the mixture was centrifuged at 12000×g at 4° C. for 10 minutes. After centrifugation, the upper layer was discarded, and the resultant was suspended in 20 μL of milliQ water, thereby collecting the total mRNA. Subsequently, using the total mRNA of each group as a template, RT-PCR was performed using TaKaRa RNA PCR Kit (AMV) Ver 3.0 (TaKaRa), to prepare a template cDNA of each sample. The RT-PCR reaction solution composition and RT-PCR reaction conditions are as described below. […] RT reaction conditions: after reaction at 42° C. for 30 minutes, respective reactions at 95° C. for 5 minutes and 5° C. for 5 minutes were performed for 1 cycle using a thermal cycler (Bio Flux). Subsequently, PCR was performed using the template cDNA of each group as a template, to amplify each cDNA of TNF-α, IL-6, IL-12B, IL-18, and glyceraldehyde-3-phosphate dehydrogenase (GAPDH). Primers, the PCR reaction solution composition, and PCR reaction conditions are as described below. PCR reaction solution composition: 5×PCR buffer 10 μL, milliQ 28.75 μL, Ex Taq 0.25 μL, sense primer 0.5 μL, antisense primer 0.5 μL, whole amount of template cDNA of each sample. PCR reaction conditions: after reaction at 94° C. for 2 minutes, with respective reactions at 94° C. for 30 seconds, 60° C. for 30 seconds, and 72° C. for 1 minute as 1 cycle, 35 cycles were performed. Thereafter, the amount of PCR reaction product was confirmed by performing agarose gel electrophoresis according to the conventional method, whereby the expression levels of mRNA for TNF-α, IL-6, IL-12B, IL-18, and glyceraldehyde-3-phosphate dehydrogenase (GAPDH) were confirmed."}, "macrophage-like cells": {"tested_on": "macrophage-like cells", "assay": "TNF-α secretion from macrophage-like cells (ELISA)", "type": "cell-based, human", "conditions": "added independently or in combination; ELISA of culture fluid", "excerpt": "Since the increase in phagocytosis of macrophage-like cells by the Aureobasidium culture fluid or Compound 1 was inferred to be the result of activity induction in the macrophage-like cells, it was attempted to see if it is true. Specifically, regarding TNF-α, a type of cytokines released by activity induction, how much this substance was secreted into a culture fluid of the macrophage-like cells to which the Aureobasidium culture fluid, Compound 1, or the Aureobasidium culture fluid plus Compound 1 was added was measured by ELISA according to an ordinary method."}, "[2]": {"tested_on": "THP-1 cells differentiated into macrophage-like cells", "assay": "Ability of macrophage-like cells to phagocytose polystyrene beads", "type": "cell-based, human", "conditions": "500-fold vs 1000-fold dilution; 1 μM vs 10 μM", "method": "THP-1 cells (refer to FIG. 1 (A)) were seeded in a 24-well plate (Becton Dickinson Labware, Franklin Lakes, N.J.) at 2×10^5 cells/mL per well, and phorbol 12-myristate 13-acetate (PMA) (Wako) was added to each well so as to have a final concentration of 160 nM, and incubated at 37° C. under 5% CO2 for 72 hours, to give macrophage-like cells (refer to FIG. 1 (B)). After incubation, the cells were washed twice with sterilized PBS in order to remove undifferentiated THP-1 cells, and a fresh medium was added thereto, and the mixture was subjected to an experiment. The THP-1 cells differentiated into macrophage-like cells were prepared in a 24-well plate by the method of Test Example 1. Thereto were each added 500-fold and 1000-fold dilutions as final concentration of an Aureobasidium culture fluid, and the mixture was incubated for 4 hours. […] Thereafter, beads with a diameter of 10 μm were added to each well at a final concentration of 2 μL/mL (Trade name “Polybeads dyed violet” manufactured by Polysciences, Inc.), and the mixture was incubated for 3 hours to allow phagocytosis of the beads by the cells. After the incubation, each well was washed 3 times with sterilized PBS in order to remove beads that were not phagocyted. […] The number of beads phagocyted by the macrophage-like cells was measured with a phase contrast microscope. […]"}, "Jurkat cells": {"tested_on": "Jurkat cells", "assay": "Exposure of phosphatidylserine in apoptotic Jurkat cells (Annexin V / propidium iodide, flow cytometry)", "type": "cell-based, human", "conditions": "Jurkat cells exposed to 250 μM 5-FU (250 μM or 500 μM tested), 24 hours", "experimental": "Whether the cytotoxicity of 5-FU on Jurkat cells was caused by apoptosis was studied. In early apoptosis, phosphatidylserine (PS) localized on the inside of cell membrane exposes to the outside. PS is a molecule also relating to the recognition and phagocytosis of apoptotic cells by macrophages. The PS exposure is measured, whereby induction of early apoptosis can be confirmed. In late apoptosis, the cell membrane breaks, and the internal components leak out thereof. Therefore, the cells are combined with propidium iodide (PI) which is a membrane impermeable fluorescent dye, whereby the late apoptotic cells and early apoptotic cells can be clearly separated (refer to FIG. 3)."}, "in vitro": {"assay": "in vitro", "type": "cell-based", "conditions": "human", "experimental": "In the following Test Examples, the human monocytic leukemia cell line THP-1 or human leukemia T cell line, Jurkat cell line was incubated at 37° C. under 5% CO2 for culture in the RPMI 1640 medium (containing 10% fetal bovine serum (FBS), 75 mg/L kanamycin, and 3.5 μL/L 2-mercaptoethanol).\nIn order to study the cytotoxicity of 5-FU on Jurkat cells, 5-FU was studied by MTT method. Jurkat cells prepared as 2.0×10^5 cells/mL were placed in a 96-well plate (Corning). 5-FU was added thereto so as to have final concentrations of 0, 10, 100, and 1000 μM, and the cells were then exposed thereto in a CO2 incubator at 37° C. for 24 hours. At the time point of the exposure over 23 hours, 10 μL of 3-[4,5-dimethylthiazol-2-yl]-2,5-diphenyltet-razolium bromide (MTT solution) (Wako) was added to each well, and the cells were then exposed thereto at 37° C. for 1 hour. After the exposure, the mixture was centrifuged at 1200 rpm for 5 minutes, the supernatant was discarded, 100 μL per well of DMSO was added, and the mixture was measured for absorbance at 570 nm using a microplate reader. […] Therefore, DMSO was added to dissolve the formazan precipitate, and the absorbance of the solution was measured at 570 nm. When the cells are alive, formazan is produced, and thus the solution can be measured at 570 nm."}},
  "data": [
    {"smiles": "CCOCc1nc2c(N)nc3ccccc3c2n1CC(C)(C)O", "note": "[Compound 1, 4-Amino-2-(ethoxymethyl)-a,a-dimethyl-1H-imidazo[4,5-c]quinoline-1-ethanol]", "values": [
      {"measurement": "expression level of mRNA for IL-12B", "setting": "[1]; group b: Compound 1 1 μM", "value": "increased"},
      {"measurement": "expression level of mRNA for IL-18", "setting": "[1]; group b: Compound 1 1 μM", "value": "increased"},
      {"measurement": "expression level of mRNA for TNF-α", "setting": "[1]; group b: Compound 1 1 μM", "value": "increased"},
      {"measurement": "expression level of mRNA for IL-6", "setting": "[1]; group c: Compound 1 10 μM", "value": "increased"},
      {"measurement": "expression level of mRNA for IL-12B", "setting": "[1]; group c: Compound 1 10 μM", "value": "increased"},
      {"measurement": "expression level of mRNA for IL-18", "setting": "[1]; group c: Compound 1 10 μM", "value": "increased"},
      {"measurement": "TNF-α secreted as compared to the case of adding nothing", "setting": "macrophage-like cells", "value": "larger amount"},
      {"measurement": "working concentration giving higher phagocytosis of polystyrene beads", "setting": "[2]", "value": "higher for 1 μM"}
    ]},
    {"smiles": "O=c1[nH]cc(F)c(=O)[nH]1", "note": "[Compound 5-FU, 5-fluorouracil]", "values": [
      {"measurement": "PS exposure (early apoptosis)", "setting": "Jurkat cells", "value": "much PS exposure"},
      {"measurement": "IC50 at 24 h", "setting": "in vitro", "value": 450, "unit": "µM"}
    ]}
  ]
}
